Data on 22 molecules can be found in PubChem BioAssay (NCI).

Structures are written as SMILES.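 96-well plates; 48 h exposure; 5 concentrations. Endpoints by linear interpolation between flanking doses. Not reached: highest tested concentration assigned. GI50 marks 50% less growth. Definition used: TGI = concentration required for complete inhibition of growth.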

Test systems include A549 NSCLC; HCT-15 colon; MALME-3M melanoma; OVCAR-8 ovarian; SK-OV-3 ovarian; SNB-19 CNS; SW-620 colon; UO-31 renal; HOP-62 NSCLC.
Test in all cases: NCI tumour cell line growth inhibition, 48 h

As to `O=c1[nH]c(C2CCCCC2)nc2cc(Cl)ccc12`, the TGI in the assay with A549 NSCLC, in the assay on HCT-15 colon, in the assay on MALME-3M melanoma, in the assay with OVCAR-8 ovarian, in the assay on SK-OV-3 ovarian and in the assay with SNB-19 CNS was over 100 µM each time. Also, the TGI in the assay with SW-620 colon and with UO-31 renal was over 100 µM in each case.
Take `Cc1ccccc1C(C#N)/C(=N/NC(=O)C(=O)NN)C(=O)Nc1cccc(C(F)(F)F)c1` (stereo not drawn): the TGI in the assay with A549 NSCLC, in the assay on HCT-15 colon, in the assay on HOP-62 NSCLC, with MALME-3M melanoma, in the assay on OVCAR-8 ovarian and with SNB-19 CNS was over 100 µM in each case. The TGI in the assay on SW-620 colon and in the assay on UO-31 renal was over 100 µM each time.
For the molecule `CC(C)(C)C1CCN(C(=O)c2ccccc2)CC1`, the TGI in the assay with A549 NSCLC, in the assay with HCT-15 colon, in the assay with HOP-62 NSCLC, with MALME-3M melanoma, in the assay with OVCAR-8 ovarian and in the assay with SK-OV-3 ovarian was over 100 µM in each case. Moreover, the TGI in the assay on SNB-19 CNS, in the assay on SW-620 colon and with UO-31 renal was over 100 µM throughout.
With `O=c1nc2[nH]nc(-c3ccccc3)c2n[nH]1`, the TGI in the assay with A549 NSCLC, with HCT-15 colon, in the assay on HOP-62 NSCLC, in the assay on OVCAR-8 ovarian, in the assay with SNB-19 CNS and in the assay with SW-620 colon was over 100 µM throughout. The same molecule gave a TGI in the assay with UO-31 renal of over 100 µM.
Turning to `O=CN/C=C/c1ccccc1O`, the TGI with A549 NSCLC, in the assay on HCT-15 colon, in the assay with HOP-62 NSCLC, in the assay with MALME-3M melanoma, in the assay with OVCAR-8 ovarian and with SK-OV-3 ovarian was over 100 µM each time. In addition, the TGI with SNB-19 CNS, in the assay on SW-620 colon and in the assay with UO-31 renal was over 100 µM in each case.
Regarding `CC1=C(C(=O)Nc2ccc(Cl)c(Cl)c2)C(c2cccc(O)c2)NC(=S)N1` (stereo not drawn), the GI50 in the assay on HCT-15 colon is 21.8 µM; in the assay with HOP-62 NSCLC, 17.3 µM; in the assay on OVCAR-8 ovarian it was 15.9 µM; in the assay with SK-OV-3 ovarian, 10 µM; with SNB-19 CNS, 11.4 µM; in the assay with SW-620 colon, 12.5 µM. In addition, the GI50 with UO-31 renal was 9.48 µM. For the same molecule, the TGI was over 50 µM with HCT-15 colon; 31.2 µM in the assay on HOP-62 NSCLC; 28.1 µM in the assay on OVCAR-8 ovarian; 20.4 µM with SK-OV-3 ovarian; 30.3 µM with SNB-19 CNS; 33.2 µM with SW-620 colon. The same molecule gave a TGI in the assay on UO-31 renal of 19.1 µM.
Take `COC(=O)c1cc(O)ccc1NC(=O)c1ccc(O)cc1`: the TGI in the assay with A549 NSCLC, in the assay with HCT-15 colon, in the assay on HOP-62 NSCLC, in the assay with MALME-3M melanoma, in the assay with OVCAR-8 ovarian and in the assay on SK-OV-3 ovarian was over 100 µM each time. Moreover, the TGI in the assay with SNB-19 CNS, in the assay on SW-620 colon and with UO-31 renal was over 100 µM in each case.
`COc1ccc(OC)c2c3c(ncc12)-c1cc2c(cc1C3)OCO2`: the GI50 in the assay with A549 NSCLC is over 100 µM; with HCT-15 colon it was 3.87 µM; in the assay on OVCAR-8 ovarian, 9.48 µM; in the assay with SK-OV-3 ovarian it was over 100 µM; with SNB-19 CNS it was over 100 µM; in the assay with SW-620 colon it was over 100 µM. Moreover, the GI50 with UO-31 renal is over 100 µM. The TGI with A549 NSCLC is over 100 µM; in the assay with HCT-15 colon, over 100 µM; in the assay with HOP-62 NSCLC, 0.0603 µM; with OVCAR-8 ovarian, over 100 µM; in the assay on SK-OV-3 ovarian, over 100 µM; in the assay on SNB-19 CNS, over 100 µM. For the same molecule, the TGI in the assay on SW-620 colon and in the assay on UO-31 renal was over 100 µM each time.
For the molecule `COc1cc([C@@H]2c3cc4c(cc3[C@@H](NC(=O)c3ccc([N+](=O)[O-])cc3)C3COC(=O)[C@@H]32)OCO4)cc(OC)c1O` (stereo partly drawn), the TGI with A549 NSCLC amounted to 1.53 µM; in the assay with HCT-15 colon it was 6.43 µM; in the assay with HOP-62 NSCLC, 1.12 µM; in the assay with MALME-3M melanoma, 4.89 µM; in the assay on OVCAR-8 ovarian, 6.05 µM; with SK-OV-3 ovarian it was 1.89 µM. The TGI was 6.06 µM with SNB-19 CNS, 4.21 µM in the assay on SW-620 colon and 10.4 µM with UO-31 renal.
As for `[O-][N+]1=C(c2ccccc2)COc2ccccc21`, the TGI in the assay with A549 NSCLC, with HCT-15 colon, with HOP-62 NSCLC, in the assay with MALME-3M melanoma, with OVCAR-8 ovarian and with SK-OV-3 ovarian was over 100 µM in each case. The TGI in the assay on SNB-19 CNS, with SW-620 colon and in the assay with UO-31 renal was over 100 µM each time.
For `C/C(CC(=O)Nc1ccc([N+](=O)[O-])cc1)=N/N=C(N)N`, the TGI in the assay on A549 NSCLC, with HOP-62 NSCLC, in the assay on MALME-3M melanoma, with OVCAR-8 ovarian, in the assay on SK-OV-3 ovarian and in the assay with SW-620 colon was over 100 µM each time. The same molecule returned a TGI in the assay on UO-31 renal of over 100 µM.
Regarding `Cc1cc2c(=O)cc(-c3ccc(C(=O)O)cc3)oc2c(C(=O)O)c1C`, the TGI with A549 NSCLC, in the assay with HCT-15 colon, with HOP-62 NSCLC, in the assay on MALME-3M melanoma, with OVCAR-8 ovarian and in the assay with SK-OV-3 ovarian was over 100 µM in each case. For the same molecule, the TGI in the assay on SNB-19 CNS, in the assay with SW-620 colon and in the assay with UO-31 renal was over 100 µM each time.
Turning to `Clc1ccc(CCn2cncn2)c(Cl)c1`, the TGI with A549 NSCLC, with HCT-15 colon, in the assay on HOP-62 NSCLC, in the assay on OVCAR-8 ovarian, in the assay on SK-OV-3 ovarian and in the assay with SNB-19 CNS was over 100 µM throughout. Further, the TGI in the assay on SW-620 colon and with UO-31 renal was over 100 µM each time.
In the case of `Cn1c(-c2ccccc2)c/c(=N\NS(C)(=O)=O)c2cc(S(=O)(=O)O)ccc21`, the TGI in the assay with A549 NSCLC, in the assay with HCT-15 colon, with HOP-62 NSCLC, with MALME-3M melanoma, with OVCAR-8 ovarian and in the assay with SK-OV-3 ovarian was over 100 µM in each case. Besides, the TGI in the assay on SNB-19 CNS, with SW-620 colon and in the assay with UO-31 renal was over 100 µM each time.
For `C=C1CCC2C(C)(CO)C(O)CCC2(C)C1CC(O)C1=CCOC1=O` (stereo not drawn), the TGI in the assay with A549 NSCLC, in the assay with HCT-15 colon, with HOP-62 NSCLC, with MALME-3M melanoma, in the assay with OVCAR-8 ovarian and with SK-OV-3 ovarian was over 100 µM in each case. In addition, the TGI is over 100 µM with SNB-19 CNS, 51.3 µM with SW-620 colon and over 100 µM in the assay on UO-31 renal.
Turning to `O=[N+]([O-])c1ccc(C2N3CCCCC3[C@@H]3c4[nH]c5ccccc5c4CCN23)cc1` (stereo partly drawn), the TGI is over 100 µM with A549 NSCLC; 59.1 µM with HCT-15 colon; 47.9 µM in the assay on HOP-62 NSCLC; over 100 µM in the assay on OVCAR-8 ovarian; over 100 µM in the assay with SK-OV-3 ovarian; 67.1 µM in the assay on SNB-19 CNS. The TGI with SW-620 colon was over 100 µM; in the assay with UO-31 renal, 81.8 µM.
As for `O=C(CCc1cc(-c2ccco2)n(-c2ccc([N+](=O)[O-])cc2[N+](=O)[O-])n1)Nc1ccccc1`, the TGI in the assay with A549 NSCLC is over 100 µM; in the assay on HCT-15 colon, over 100 µM; in the assay with HOP-62 NSCLC, over 100 µM; with MALME-3M melanoma it was 94.2 µM; in the assay with OVCAR-8 ovarian it was over 100 µM; with SK-OV-3 ovarian it was over 100 µM. Also, the TGI with SNB-19 CNS, in the assay with SW-620 colon and in the assay with UO-31 renal was over 100 µM in each case.
Turning to `C#Cc1ccc(-n2c(/C=C/c3ccc4ccccc4n3)nc3ncccc3c2=O)cc1`, the GI50 in the assay on A549 NSCLC is 0.353 µM; in the assay with HOP-62 NSCLC, 0.85 µM; with MALME-3M melanoma it was 0.798 µM; in the assay with OVCAR-8 ovarian, 0.763 µM; in the assay with SK-OV-3 ovarian it was 0.351 µM; with SW-620 colon, 0.387 µM. In the assay with UO-31 renal, the GI50 is 0.403 µM. Also, the TGI with A549 NSCLC was found to be 1.83 µM; in the assay on HOP-62 NSCLC, 2.36 µM; in the assay with MALME-3M melanoma, 2.35 µM; in the assay on OVCAR-8 ovarian, 2.95 µM; in the assay with SK-OV-3 ovarian it was 1.08 µM; with SW-620 colon, 1.52 µM. In addition, in the assay on UO-31 renal, the TGI is 1.8 µM.
Turning to `COC(=O)/C(Cl)=C1/CC1COCc1ccccc1` (stereo not drawn), the TGI in the assay with A549 NSCLC was over 100 µM; with HCT-15 colon it was 35.8 µM; in the assay on HOP-62 NSCLC, over 100 µM; with MALME-3M melanoma, 83.1 µM; in the assay on OVCAR-8 ovarian it was over 100 µM; in the assay on SK-OV-3 ovarian, over 100 µM. In addition, the TGI was over 100 µM in the assay on SNB-19 CNS, 45.1 µM in the assay with SW-620 colon and 67.5 µM with UO-31 renal.
On to `Cc1ccc(S(=O)(=O)NC(=O)Nc2nc(Cl)cc(Cl)n2)cc1`, for which the TGI in the assay on A549 NSCLC, in the assay with HOP-62 NSCLC, in the assay on MALME-3M melanoma, with OVCAR-8 ovarian, in the assay on SK-OV-3 ovarian and with SNB-19 CNS was over 100 µM each time. Further, the TGI in the assay with SW-620 colon and in the assay on UO-31 renal was over 100 µM each time.
With `O=C(Cc1nc2ccccc2s1)NC12CC3CC(CC(C3)C1)C2`, the TGI in the assay on A549 NSCLC, in the assay on HCT-15 colon, with HOP-62 NSCLC, in the assay with MALME-3M melanoma, in the assay on OVCAR-8 ovarian and in the assay with SK-OV-3 ovarian was over 100 µM in each case. The TGI in the assay with SNB-19 CNS, in the assay on SW-620 colon and with UO-31 renal was over 100 µM each time.
Regarding `COC(=O)CCC(=O)C(C#N)c1ccc(Cl)cc1Cl` (stereo not drawn), the TGI with A549 NSCLC, with HCT-15 colon, in the assay on MALME-3M melanoma, in the assay on SK-OV-3 ovarian, in the assay on SNB-19 CNS and in the assay with SW-620 colon was over 100 µM in each case. Further, in the assay with UO-31 renal, the TGI was over 100 µM.
